The values that follow come from ChEMBL document CHEMBL1201862, “PubChem BioAssay data set” (2004).

Structures are written as SMILES.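 In this assay, cells in 96-well plates receive the compound at five concentrations for 48 hours. Endpoints are linearly interpolated between the surrounding concentrations. GI50 marks 50% less growth.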 The source made the active and inactive calls. Rule as the data show it: active = GI50 up to about 1.1 µM and inactive = higher.

Among the test systems are OVCAR-4; MDA-N; KM-20L2; CCRF-CEM; KM12; SF-295; COLO 205; HOP-92; EKVX; HT-29; SN12C; TK-10; K562; OVCAR-3; BT-549; T47D; UO-31; 786-0; HOP-62; U-251.
Common to all, as to test: NCI tumour cell line growth inhibition, 48 h

As for `C[C@]12C=CC(=O)C=C1CC[C@@H]1[C@@H]2CC[C@]2(C)OC(=O)CC[C@@H]12` [TESTOLACTONE], the GI50 is 486 µM (inactive) in the assay with OVCAR-4; > 500 µM (inactive) in the assay with MDA-N; 456 µM (inactive) in the assay on KM-20L2; 431 µM (inactive) with CCRF-CEM; > 500 µM (inactive) with KM12; > 500 µM (inactive) in the assay with SF-295. For the same compound, the GI50 with COLO 205 was 480 µM (inactive); with HOP-92, 402 µM (inactive); with EKVX, 318 µM (inactive); in the assay on HT-29, > 493 µM (inactive); with SN12C it was 495 µM (inactive); in the assay with TK-10, 499 µM (inactive). Moreover, the GI50 was 449 µM (inactive) in the assay with K562; 479 µM (inactive) in the assay on OVCAR-3; 237 µM (inactive) with BT-549; > 337 µM (inactive) with T47D; 444 µM (inactive) in the assay on UO-31; > 500 µM (inactive) in the assay on 786-0. Besides, the values for the GI50 in the assay on HOP-62 and with U-251 were > 467 µM (inactive) and > 500 µM (inactive), respectively.
Consider `CCOC(=O)Oc1cc2c(c(OC)c1OC)-c1ccc(OC)c(=O)cc1C(NC(C)=O)CC2` (stereo unspecified), for which the GI50 in the assay with OVCAR-4 is 11.2 µM (inactive); in the assay with MDA-N, < 0.01 µM (active); with KM-20L2, 0.0416 µM (active); in the assay on CCRF-CEM, < 0.0122 µM (active); in the assay with KM12, 0.0172 µM (active); in the assay with SF-295 it was 0.0574 µM (active). Further, the GI50 with COLO 205 is 0.0185 µM (active); with HOP-92, 0.0968 µM (active); in the assay on EKVX it was 19.1 µM (inactive); in the assay on HT-29 it was 0.0187 µM (active); with SN12C it was 0.034 µM (active); in the assay on TK-10, 3.78 µM (inactive). In addition, the GI50 is 0.0138 µM (active) with K562; 0.0166 µM (active) in the assay on OVCAR-3; > 100 µM (inactive) with T47D; 5.35 µM (inactive) with UO-31; 0.0345 µM (active) in the assay with 786-0; 0.0509 µM (active) with HOP-62. In addition, the GI50 with U-251 was 0.0212 µM (active).
`CCN(CC)CCNc1ccc2nnn3c4ccc([N+](=O)[O-])cc4c(=O)c1c23`: the GI50 was 9.18 µM (inactive) with OVCAR-4; 71.8 µM (inactive) in the assay with MDA-N; 4.94 µM (inactive) in the assay on KM-20L2; 4.91 µM (inactive) in the assay on CCRF-CEM; 6.28 µM (inactive) with KM12; 5.82 µM (inactive) with SF-295. The GI50 in the assay on COLO 205 was 4.85 µM (inactive); in the assay on HOP-92 it was 11.3 µM (inactive); with EKVX it was 14.1 µM (inactive); in the assay with HT-29, 3.89 µM (inactive); in the assay on SN12C, 7.05 µM (inactive); with TK-10, 11.6 µM (inactive). Moreover, the GI50 was 6.7 µM (inactive) in the assay with K562; > 79.6 µM (inactive) in the assay on OVCAR-3; > 100 µM (inactive) in the assay on BT-549; > 100 µM (inactive) with T47D; 3.44 µM (inactive) in the assay with UO-31; 4.34 µM (inactive) with 786-0. Further, the figures for the GI50 in the assay with HOP-62 and with U-251 were 2.28 µM (inactive) and 5.21 µM (inactive), respectively.
With `Cc1cc(C)c(/C=N/NS(=O)(=O)c2ccccc2)c(C)c1`, the GI50 in the assay on OVCAR-4 is > 100 µM (inactive); in the assay on KM-20L2, > 100 µM (inactive); with CCRF-CEM, 62.8 µM (inactive); in the assay on KM12 it was > 100 µM (inactive); in the assay on SF-295, 38.5 µM (inactive); in the assay on COLO 205, > 100 µM (inactive). Besides, the GI50 with HOP-92 was 36.3 µM (inactive); in the assay on EKVX, 62.7 µM (inactive); in the assay with HT-29, > 100 µM (inactive); with SN12C it was 92.3 µM (inactive); in the assay with TK-10, > 100 µM (inactive); with K562, 94.4 µM (inactive). Moreover, the GI50 in the assay with OVCAR-3 was 47.6 µM (inactive); in the assay on UO-31 it was 72.1 µM (inactive); with 786-0, > 100 µM (inactive); with HOP-62, > 100 µM (inactive); in the assay with U-251 it was > 100 µM (inactive).
